Reference: patent US20150087673A1, “METHODS FOR USING AND BIOMARKERS FOR AMPK-ACTIVATING COMPOUNDS” (RIGEL PHARMACEUTICALS, INC., priority 2013, published 2015)

Each compound was assayed on AMPK (assay: AMPK activation assay (enzyme-linked immunosorbent assay)).
Type: cell-based
Summary of the method: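 Kit-based immunoassay; compounds screened as activators; standard reagents and protocol.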

| EC50 [nM] | SMILES |
| --- | --- |
| > 10000 | CS(=O)(=O)Nc1ccc(CN2CCC(NC(=O)c3ccc(C(=O)N4CCC(Oc5ccc(C#N)cc5)CC4)nc3)CC2)cc1 [Compound 217, 6-(4-(4-cyanophenoxy)piperidine-1-carbonyl)-N-(1-(4-(methylsulfonamido)benzyl)piperidin-4-yl)nicotinamide] |
| 1000 to 5000 | COc1ccc(CN2CCC(NC(=O)c3ccc(C(=O)N4CCC(C(=O)c5ccc(S(C)(=O)=O)cc5)CC4)nc3)CC2)cc1 [Compound 223, N-(1-(4-methoxybenzyl)piperidin-4-yl)-6-(4-(4-(methylsulfonyl)benzoyl)piperidine-1-carbonyl)nicotinamide] |
| < 500 | COc1ccc(C(=O)C2CCN(C(=O)c3ccc(C(=O)N[C@@H]4CCN(Cc5ccc(C#N)c(F)c5)C[C@H]4F)cn3)CC2)cc1 (relative stereo) [Compound 354, N-((trans)-1-(4-cyano-3-fluorobenzyl)-3-fluoropiperidin-4-yl)-6-(4-(4-methoxybenzoyl)piperidine-1-carbonyl)nicotinamide] |
| < 500 | CC(C)S(=O)(=O)c1ccc(N2CCN(C(=O)c3ccc(C(=O)NC4CCN(Cc5ccc(C#N)cc5)CC4)nc3)CC2)cc1 [Compound 251, N-(1-(4-cyanobenzyl)piperidin-4-yl)-5-(4-(4-(isopropylsulfonyl)phenyl)piperazine-1-carbonyl)picolinamide] |
| < 500 | N#Cc1ccc(CN2CCC(NC(=O)c3ccc(C(=O)N4CCN(c5ccc(C#N)cc5)CC4)cn3)CC2)cc1 [Compound 340, N-(1-(4-cyanobenzyl)piperidin-4-yl)-5-(4-(4-cyanophenyl)piperazine-1-carbonyl)picolinamide] |
| < 500 | COc1ccc(CN2CCC(NC(=O)c3ccc(C(=O)N4CCC(Oc5ccc(NC(C)=O)cc5)CC4)nc3)CC2)cc1 [Compound 407, 6-(4-(4-acetamidophenoxy)piperidine-1-carbonyl)-N-(1-(4-methoxybenzyl)piperidin-4-yl) nicotinamide] |
| < 500 | N#Cc1ccc(CN2CCC(NC(=O)c3ccc(C(=O)N4CCC(C(=O)c5ccc(-n6cccn6)cc5)CC4)nc3)CC2)cc1 [Compound 393, 6-(4-(4-(1H-pyrazol-1-yl)benzoyl)piperidine-1-carbonyl)-N-(1-(4-cyanobenzyl)piperidin-4-yl)nicotinamide] |
| < 500 | COc1ccc(C(=O)C2CCN(C(=O)c3ccc(C(=O)N[C@@H]4CCN(Cc5ccc(OC(C)C)cc5)C[C@H]4F)cn3)CC2)cc1 (relative stereo) [Compound 353, N-((trans)-3-fluoro-1-(4-isopropoxybenzyl)piperidin-4-yl)-6-(4-(4-methoxybenzoyl)piperidine-1-carbonyl)nicotinamide] |
| < 500 | N#Cc1ccc(CN2CCC(NC(=O)c3ccc(C(=O)N4CCC(Oc5cccnc5)CC4)cn3)CC2)cc1 [Compound 283, N-(1-(4-cyanobenzyl)piperidin-4-yl)-5-(4-(pyridin-3-yloxy)piperidine-1-carbonyl)picolinamide] |
| < 500 | N#Cc1ccc(CN2CCC(NC(=O)c3ccc(C(=O)N4CCC(Oc5ccncc5)CC4)cn3)CC2)cc1 [Compound 269, N-(1-(4-cyanobenzyl)piperidin-4-yl)-5-(4-(pyridin-4-yloxy)piperidine-1-carbonyl)picolinamide] |
| > 10000 | CS(=O)(=O)c1ccc(CN2CCC(NC(=O)c3ccc(C(=O)N4CCC(Oc5ccc(C#N)cc5)CC4)nc3)CC2)cc1 [Compound 214, 6-(4-(4-cyanophenoxy)piperidine-1-carbonyl)-N-(1-(4-(methylsulfonyl)benzyl)piperidin-4-yl)nicotinamide] |
| < 500 | N#Cc1ccc(OC2CN(C(=O)c3ccc(C(=O)NC4CCN(Cc5cc(F)cc(F)c5)CC4)nc3)C2)cc1 [Compound 313, 5-(3-(4-cyanophenoxy)azetidine-1-carbonyl)-N-(1-(3,5-difluorobenzyl)piperidin-4-yl)picolinamide] |
| < 500 | N#Cc1ccc(CN2CCC(NC(=O)c3ccc(NC4CCN(c5ccc(F)cc5)CC4)cn3)CC2)cc1 [Compound 276, N-(1-(4-cyanobenzyl)piperidin-4-yl)-5-(1-(4-fluorophenyl)piperidin-4-ylamino)picolinamide] |
